Measured values: ChEMBL document CHEMBL1201862, “PubChem BioAssay data set” (2004)
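Cells were grown in 96-well plates and exposed to each compound for 48 hours at five concentrations; endpoints were interpolated linearly between bracketing concentrations, or set to the highest concentration if not reached. GI50 = concentration required for 50% inhibition of growth.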 Calls of active or inactive are those of the source. Cut-off read from the data, not from the text of the source: active = GI50 up to about 1.1 µM and inactive = higher.

What was measured:
Assay in all cases: NCI anticancer screen, dose series, 48 h
DMS-114 = system: DMS-114
M19-MEL = system: M19-MEL
DMS-273 = system: DMS-273
KM-20L2 = system: KM-20L2
LXFL 529 = system: LXFL 529
XF498 = system: XF498
HOP-18 = system: HOP-18
SNB-78 = system: SNB-78
RXF 631 = system: RXF 631

Row | SMILES | GI50 (DMS-114) | GI50 (M19-MEL) | GI50 (DMS-273) | GI50 (KM-20L2) | GI50 (LXFL 529) | GI50 (XF498) | GI50 (HOP-18) | GI50 (SNB-78) | GI50 (RXF 631)
1 | OCCN1CCN(CC/C=C2/c3ccccc3Sc3ccc(Cl)cc32)CC1 | 16.4 µM (inactive) | 1.94 µM (inactive) | 6.05 µM (inactive) | 2.07 µM (inactive) | 5.74 µM (inactive) | 12.6 µM (inactive) | 1.5 µM (inactive) | 15.8 µM (inactive) | –
2 | COc1ccc(-c2nc(SC)n(C3OC(COC(C)=O)C(OC(C)=O)C(OC(C)=O)C3OC(C)=O)c(=O)c2C#N)cc1 (stereo not given) | – | – | – | 95.5 µM (inactive) | 35.2 µM (inactive) | – | – | 21 µM (inactive) | –
3 | O=C(O)Cc1cc(=O)[nH]c2c1/C(=N/O)CCC2 | – | – | – | – | > 100 µM (inactive) | > 100 µM (inactive) | > 100 µM (inactive) | – | –
4 | Cc1cc2nc3c(=O)n(C)c(=O)nc-3n(-c3ccc(Cl)cc3)c2cc1C | 3.1 µM (inactive) | 2.32 µM (inactive) | 5.62 µM (inactive) | 3.62 µM (inactive) | 14 µM (inactive) | 1.29 µM (inactive) | 6.87 µM (inactive) | 18.5 µM (inactive) | –
5 | CCOC(=O)c1sc(Nc2cc(Cl)ccc2Cl)nc1C | 93.3 µM (inactive) | > 100 µM (inactive) | – | 54.7 µM (inactive) | 91.4 µM (inactive) | 48.4 µM (inactive) | > 100 µM (inactive) | > 100 µM (inactive) | > 100 µM (inactive)
6 | C=C1C2Oc3ccccc3C1N(c1ccccc1)O2 (stereo not given) | 23.3 µM (inactive) | 42.7 µM (inactive) | > 10 µM (inactive) | 37.6 µM (inactive) | 35.2 µM (inactive) | 17.4 µM (inactive) | – | – | 16 µM (inactive)
7 | Nc1ccn(C2OC(CO)C(O)C2O)c(=O)n1 (stereo not given) | 0.173 µM (active) | 6.43 µM (inactive) | 1.74 µM (inactive) | 64 µM (inactive) | > 443 µM (inactive) | 434 µM (inactive) | – | – | –
8 | CCCCc1c2c(nc3c1CCCC3=O)C(=O)CCC2 | > 100 µM (inactive) | > 100 µM (inactive) | > 100 µM (inactive) | > 100 µM (inactive) | > 100 µM (inactive) | > 100 µM (inactive) | > 100 µM (inactive) | > 100 µM (inactive) | –
9 | CCCCCCCCCCNC(=S)OC | 15.6 µM (inactive) | 29 µM (inactive) | 51.5 µM (inactive) | 32.7 µM (inactive) | 33.7 µM (inactive) | – | > 100 µM (inactive) | 53.3 µM (inactive) | 62.1 µM (inactive)
10 | Cc1ccc(C)c(N2C(=O)C(=O)C(c3nc4ccccc4o3)/C(=N\NC(=O)c3ccccc3O)C2=O)c1 (stereo not given) | 20.1 µM (inactive) | 64.7 µM (inactive) | 6.14 µM (inactive) | 41.1 µM (inactive) | 31.8 µM (inactive) | – | 20.9 µM (inactive) | 6.08 µM (inactive) | –
11 | Cc1cc(N(CCC#N)CCC#N)ccc1/C=C1/N=C(c2ccccc2)N(N)C1=O | 75 µM (inactive) | > 100 µM (inactive) | 89.1 µM (inactive) | > 100 µM (inactive) | > 100 µM (inactive) | > 100 µM (inactive) | – | – | –
12 | CCN(CC)CCCNC(=O)C1COc2cc(-c3cc(=O)c4ccccc4o3)ccc2O1 (stereo not given) | 25.4 µM (inactive) | 20.9 µM (inactive) | 65.5 µM (inactive) | 34.8 µM (inactive) | 53 µM (inactive) | – | > 100 µM (inactive) | > 100 µM (inactive) | 34.4 µM (inactive)
